Converted amounts (≈) assume the structure as drawn.
Key:
[1] = test system: MRSA USA400 (NRS123); assay: multi-step resistance selection; assay type: cell-based, Staphylococcus aureus; conditions: for increase in MIC after fourteen passages: MRSA USA400 (NRS123), fourteen passages over two weeks
Experimental: To assess MRSA’s ability to develop resistance to the diphenylurea compounds after repeated exposure, a multi-step resistance selection experiment was conducted. […] Resistance was classified as a greater than four-fold increase in the initial MIC, as reported elsewhere.

[2] = test system: S. epidermidis NRS101 biofilm; assay: biofilm mass disruption, crystal violet reporter assay; assay type: cell-based, Staphylococcus epidermidis; conditions: even at 128 μg/mL, 24-hour treatment
Experimental: (§1) Compounds 1, 2, and vancomycin were examined for their ability to eradicate mature staphylococcal biofilm using the microtiter dish biofilm formation assay. S. epidermidis NRS101 and S. aureus ATCC 6538 were selected as the test organisms given their ability to form strong adherent biofilm. An overnight culture of bacteria was diluted (1:100 in TSB + 1% glucose) and transferred to a 96-well plate. The plate was incubated for 24 hours at 37 °C in order to form adherent biofilm on the surface of the plate wells. The medium containing the bacterial suspension was removed and the biofilm was washed with sterile PBS to remove planktonic cells. Compounds 1, 2, or vancomycin (from 128 to 1 μg/mL), in triplicate, in TSB were incubated with the biofilm for 24 hours at 37 °C.
(§2) Compounds were subsequently removed. The biofilm was washed with PBS and then stained with 1% (w/v) crystal violet for 40 minutes. The stain was removed and wells were washed with sterile PBS. Wells were next decolorized using 95% ethanol. The optical density of each well at 595 nm was measured using a microplate reader.

[3] = test system: S. aureus ATCC 6538 biofilm; assay: as above; assay type: cell-based, Staphylococcus aureus; conditions: all concentrations tested
Experimental: as §1, §2

[4] = test system: Bacillus subtilis; assay: Bacterial Cytological Profiling (BCP); assay type: cell-based; conditions: two hours, LB-MSM osmotically buffered media, 37 °C
Experimental: B. subtilis cells were grown in Luria Bertani (LB) medium at 37 °C until the optical density at 600 nm (OD600) was ~0.20. Cells were then left untreated or treated with compound 1 or control antibiotics in the presence of methylsulfonylmethane (MSM), as described previously. After two hours, cells were stained with FM 4−64 (1 μg/mL) to visualize cell membranes; DAPI (1 μg/ml) to visualize DNA, and SYTOX Green (1 μg/mL), a vital stain which is normally excluded from cells with an intact membrane but brightly stains cells that are lysed. Images were collected using a Delta Vision Spectris Deconvolution microscope, as described previously.

[5] = test system: S. aureus NRS107 (RN4220); assay: accumulation of UDP-N-acetylmuramyl pentapeptide (HPLC-MS); assay type: cell-based, Staphylococcus aureus; conditions: 10 × MIC, 30 minutes
Experimental: The accumulation of UDP-N-acetylmuramyl pentapeptide was detected using a procedure described in a previous study, with the following modifications. S. aureus NRS107 (RN4220), in early logarithmic growth stage (OD600 ~ 0.60), was incubated with 130 μg/mL chloramphenicol for 15 minutes at 37°C. […] Untreated samples served as a negative control. Samples were centrifuged at 10,000 rpm for five minutes, the supernatant discarded, and the pellet re-suspended in sterile deionzined water (1 mL). The pellet was boiled at […] for 30 minutes before samples were chilled on ice for 10 minutes. UDP-N-acetylmuramyl-pentapeptide was measured using an Agilent High Performance Liquid Chromatography coupled to a time-of-flight Mass Spectrometer (HPLC-MS). A Waters XBridge Phenyl (2.1 × 100 mm, 3.5 μm) chromatography column was used, with mobile phases of water, 0.1% formic acid (Buffer A) and acetonitrile, 0.1% formic acid (Buffer B). A gradient of 5–20% Buffer B over 14 minutes was used, with a flow rate of 0.3 mL/min. An electrospray source was used, in positive ionization mode. Extracted Ion Chromatograms (EIC) were generated at a mass-to-charge ratio (m/z) of 1150.3588 (20 ppm window). Mass error for UDP-N-acetylmuramyl-pentapeptide was <1 ppm.

[6] = test system: VRS10; assay: microbe, parasite or virus in culture; assay type: cell-based, Staphylococcus aureus; conditions: VRS10, compound at ½ × MIC
Experimental: (§3) CAMHB was inoculated with strain VRS4 or strain VRS10 (5×10^5 CFU/mL), as described previously, with the following modifications. Aliquots ([…]) of the bacterial suspension were divided into micro-centrifuge tubes and compounds 1 or 2 (at ½ × MIC) were introduced into each tube. After 30 minutes of incubation at room temperature, samples from each tube were transferred to a new micro-centrifuge tube, prior to addition of vancomycin (at 128 μg/mL). Plates containing the test agents and bacteria were then incubated at 37 °C for 20–22 hours after which the MIC value was determined. A fold-reduction was calculated by comparing the MIC of vancomycin compared to the MIC of vancomycin given in combination with compounds 1 or 2 (at ½ × MIC).

[7] = test system: human keratinocyte cell line; parameters: method as in PMID 28249208; conditions: human keratinocytes; ref [21]; cited from earlier work
[8] = parameters: method as in PMID 28249208; conditions: human liver microsomes; ref [21]; cited from earlier work
[9] = test system: human epithelial colorectal (Caco-2) cell line; assay: MTS cytotoxicity assay; assay type: cell-based; conditions: Caco-2, MTS assay, highest concentration tested
Experimental: Compounds 1 and 2 were assayed (at concentrations of 16 μg/mL, 32 μg/mL, 64 µg/mL, and 128 μg/mL) against a human epithelial colorectal (Caco-2) cell line (American Type Culture Collection, ATCC HTB-37) using the MTS assay. Cells were cultured in DMEM supplemented with penicillin-streptomycin, nonessential amino acids (1%), and FBS (10%), at 37 °C with CO2 (5%). The cells were incubated with compounds (in triplicate) or DMSO (negative control) in a 96-well tissue culture-treated plate at 37 °C with CO2 (5%) for two hours. The MTS assay reagent (Promega, Madison, WI, USA) was subsequently added to each well and plates were incubated for four hours at 37 °C with CO2 (5%). The quantity of viable cells (at OD490) after treatment was expressed as a percentage of the viability of DMSO-treated control cells (average of triplicate wells ± standard deviation). The toxicity data was analyzed via a two-way ANOVA, with post hoc Dunnet’s multiple comparisons test (n = 3, P < 0.05), utilizing GraphPad Prism 6.0 (GraphPad Software, La Jolla, CA).

[10] = test system: VRS4; assay: microbe, parasite or virus in culture; assay type: cell-based, Staphylococcus aureus; conditions: VRS4, compound at ½ × MIC
Experimental: as §3

[11] = test system: MRSA; parameters: method as in PMID 28249208; conditions: C. elegans; ref [21]; cited from earlier work

Row | SMILES | increase in MIC after fourteen passages [1] | MIC ([1]; Staphylococcus aureus, read-out: initial MIC) [µg/mL] | decrease in S. epidermidis biofilm mass [2] | change in optical density of S. aureus biofilm (biofilm mass) [3] | cytological profile (cell morphology) [4] | UDP-N-acetylmuramyl pentapeptide accumulation [5] | Fold re-sensitization of VRSA to vancomycin [6] | non-toxic up to (concentration) [7] [µg/mL] | intrinsic half-life [8] | non-toxic up to (concentration) [9] [µg/mL] | Fold re-sensitization of VRSA to vancomycin [10] | reducing the burden of MRSA in infected worms [11]
1 | C/C(=N\NC(=N)N)c1ccc(NC(=O)Nc2ccc(OCCC(C)C)cc2)cc1 [compound 1] | No increase | 8 (≈ 20.2 µM) | no decrease | no change | cell shape defects | notable increase | 3-fold | 32 | exceeded four hours | ≥ 128 |  | 
2 | C/C(=N\NC(=N)N)c1ccc(NC(=O)Nc2ccc(OC3CCCCCC3)cc2)cc1 [compound 2] | No increase |  | no decrease | no change |  |  |  | 64 | exceeded four hours | ≥ 128 | 7-fold | superior to vancomycin

— PMC5552351, “Bacteriological profiling of diphenylureas as a novel class of antibiotics against methicillin-resistant Staphylococcus aureus” (PLoS ONE, 2017)
